Test results: PubChem BioAssay (NCI)
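Cells were grown in 96-well plates and exposed to each compound for 48 hours at five concentrations; endpoints were interpolated linearly between bracketing concentrations, or set to the highest concentration if not reached. GI50: concentration for 50% inhibition of growth. Definition used: TGI = concentration required for complete inhibition of growth.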

Columns and labels:
Assay in all cases: DTP human tumour cell line panel, 48 h
SF-295 CNS = system: SF-295 CNS
NCI-H23 lung = system: NCI-H23 lung
RPMI-8226 leukemia = system: RPMI-8226 leukemia
A498 renal = system: A498 renal
MOLT-4 leukemia = system: MOLT-4 leukemia
SK-OV-3 ovarian = system: SK-OV-3 ovarian
OVCAR-5 ovarian = system: OVCAR-5 ovarian
K-562 leukemia = system: K-562 leukemia
U251 CNS = system: U251 CNS
MDA-MB-231 breast = system: MDA-MB-231 breast

| Structure (SMILES) | TGI (SF-295 CNS) [µM] | TGI (NCI-H23 lung) [µM] | TGI (RPMI-8226 leukemia) [µM] | TGI (A498 renal) [µM] | TGI (MOLT-4 leukemia) [µM] | TGI (SK-OV-3 ovarian) [µM] | TGI (OVCAR-5 ovarian) [µM] | TGI (K-562 leukemia) [µM] | TGI (U251 CNS) [µM] | GI50 (RPMI-8226 leukemia) [µM] | GI50 (A498 renal) [µM] | GI50 (MOLT-4 leukemia) [µM] | GI50 (SK-OV-3 ovarian) [µM] | GI50 (OVCAR-5 ovarian) [µM] | GI50 (MDA-MB-231 breast) [µM] | TGI (MDA-MB-231 breast) [µM] | GI50 (U251 CNS) [µM] | GI50 (NCI-H23 lung) [µM] | GI50 (K-562 leukemia) [µM] | GI50 (SF-295 CNS) [µM] |
| --- | --- | --- | --- | --- | --- | --- | --- | --- | --- | --- | --- | --- | --- | --- | --- | --- | --- | --- | --- | --- |
| COc1ccc(OC)c2cc(C3(C)SCCCS3)ccc12 | > 100 | > 100 | > 100 | > 100 | > 100 | > 100 | > 100 | > 100 | > 100 | – | – | – | – | – | – | – | – | – | – | – |
| C=CCN(N=O)C(=O)N(CCC)CCCCC(NC(C)=O)C(=O)NCc1ccccc1 (stereo unspecified) | > 100 | > 100 | > 100 | > 100 | > 100 | > 100 | > 100 | > 100 | > 100 | – | – | – | – | – | – | – | – | – | – | – |
| CSC(=S)NNC(=O)c1ccncc1 | 46.9 | 33.2 | 47.8 | > 100 | 55.6 | 96.2 | 48.7 | 38.5 | 41.9 | – | – | – | – | – | – | – | – | – | – | – |
| O=C(C=Nc1ccccc1C(=O)[O-])c1cccs1.O=C(C=Nc1ccccc1C(=O)[O-])c1cccs1.[Cu+2] | > 100 | > 100 | – | > 100 | > 100 | > 100 | > 100 | > 100 | > 100 | – | – | – | – | – | – | – | – | – | – | – |
| COC(=O)C1=CC2OC1(C)C1(CC1)C2=O (stereo unspecified) | 34.4 | 49.7 | 30.3 | – | 27.2 | > 100 | 57.4 | 41.9 | > 100 | – | – | – | – | – | – | – | – | – | – | – |
| Clc1ccc(CO/N=C(\Cn2ccnc2)c2ccc(Cl)cc2Cl)c(Cl)c1 | – | – | 4.52 | 2.65 | 4.94 | 3.18 | 3.26 | – | 2.94 | 1.45 | 1.32 | 2.19 | 1.8 | 1.67 | 1.32 | 2.75 | 1.51 | – | – | – |
| Cc1ccc2[nH]c(=O)c(C(C#N)c3ccccc3)nc2c1 (stereo unspecified) | > 100 | > 100 | > 100 | > 100 | > 100 | > 100 | > 100 | > 100 | 84.5 | – | – | – | – | – | – | – | – | – | – | – |
| COC(=O)C(=O)C(C(=O)C(=O)Nc1cc([N+](=O)[O-])ccc1[N+](=O)[O-])c1nc2ccc(C(=O)c3ccccc3)cc2[nH]c1=O (stereo unspecified) | > 100 | 70.4 | 62.4 | 63.4 | 61.5 | > 100 | 70.5 | 91.3 | > 100 | – | – | – | – | – | – | – | – | – | – | – |
| COc1ccc(-c2nc(-c3nc4cc(C)c(C)cc4[nH]3)cc3c2[nH]c2ccccc23)cc1 | – | 68.2 | 5.16 | 42.4 | 6.46 | 48.1 | > 100 | 20.9 | 16.6 | 1.77 | 14.4 | 2.37 | 13 | 4.01 | 2.54 | 7.76 | 3.04 | 11 | 3.36 | – |
| COc1ccccc1NC(=O)C1=C(C)NC(C)=C(C(=O)Nc2ccccc2OC)C1c1ccccc1OC | > 100 | > 100 | > 100 | > 100 | > 100 | > 100 | > 100 | > 100 | > 100 | – | – | – | – | – | – | – | – | – | – | – |
| CC1OC(O)CC(OC(=O)c2ccccc2)C1OC(=O)c1ccccc1 (stereo unspecified) | > 100 | 30.8 | 31.8 | > 100 | 39 | – | > 100 | 57.5 | > 100 | – | – | – | – | – | – | – | – | – | – | – |
| COC(=O)c1c2c(c(C)[n+]([O-])c1C)C(=O)C(NCc1ccc(F)c(F)c1)=CC2=O | 4.64 | 4.52 | 5.6 | 5.65 | 4.86 | – | 6.59 | 9.59 | 5.85 | 2.05 | 1.34 | 2.44 | – | 2.5 | 1.75 | 6.09 | 2.06 | 1.87 | 2.23 | 1.88 |
| CC12CC3CC(C)(C1)CC(N=[N+]=[N-])(C3)C2 | > 100 | > 100 | > 100 | > 100 | > 100 | > 100 | > 100 | > 100 | > 100 | – | – | – | – | – | – | – | – | – | – | – |
| CCOC(=O)C1=C(C)N(NC(=O)c2ccccc2)C2(O)CCCC12C(=O)OCC (stereo unspecified) | > 100 | – | > 100 | > 100 | > 100 | > 100 | > 100 | > 100 | > 100 | – | – | – | – | – | – | – | – | – | – | – |
| CCC[CH2][Sn]([CH2]CCC)([S]C1=NCCS1)[S]C1=NCCS1 | 2.02 | 0.67 | 0.461 | 1.31 | 0.732 | 3.31 | 3.78 | 1.05 | 1.86 | 0.101 | 0.507 | 0.157 | 1.9 | 2.29 | – | – | 0.567 | 0.17 | 0.0655 | 0.73 |
| COC(=O)C1C(=O)O[C@@H](c2ccc(OC)cc2OC)C1C(=O)OC (stereo partly specified) | > 100 | > 100 | > 100 | > 100 | > 100 | > 100 | > 100 | > 100 | > 100 | – | – | – | – | – | – | – | – | – | – | – |
| Cn1c2cccc3nnc4cccc(c4c32)n1C | > 100 | – | > 100 | > 100 | > 100 | – | > 100 | > 100 | > 100 | – | – | – | – | – | – | – | – | – | – | – |
| COc1ccc(Nc2ccnc(NCCCNc3ccnc4cc(Cl)ccc34)n2)cc1 | 2.36 | 8.5 | 3.23 | 2.54 | 7.22 | 3.18 | 3.73 | – | 1.89 | 0.891 | 0.659 | 1.45 | 1.68 | 1.16 | 0.583 | 2.15 | 0.59 | 2.43 | – | 1.12 |
| COC(=O)C1=CC2OC13CC1CCC3(C2=O)C1(C)C (stereo unspecified) | 40.5 | 32.1 | 38.6 | 49 | 33.7 | 38.1 | 33.2 | 56.4 | 25.6 | – | – | – | – | – | – | – | – | – | – | – |
